Laboratory results from patent publication US20030134779A1, “Method and composition for treatment and/or prevention of antibiotic-resistant microorganism infections” (priority 2002, published 2003).
Read-outs that look alike come from different tables or passages of the source.

How the values were obtained:
Type in all cases: cell-based, Staphylococcus aureus
S. aureus strains [1] = experiment: Disk diffusion susceptibility test and cefinase test; conditions: β-lactamase producing strains
Method: For quality control, disk diffusion susceptibility tests, as recommended by the National Committee for Clinical Laboratory Standard, were performed on all strains using standard disk of various antibiotics. After 18 h of incubation at 37° C., the diameter of the zone of complete inhibition of bacterial growth around each disk was measured. Isolates were categorized as sensitive or resistant for a given antibiotic using the recommended interpretative guidelines of the manufacturer.

S. aureus 22260 = experiment: MIC of penicillin G alone or with bovine LF, macrodilution; conditions: strain β-lactamase +B, read-out: MICs of penicillin G
Description: (§1) Staphylococcus aureus strains ATCC 25923 and 6538 and Escherichia coli ATCC 25922 were obtained from the American Type Culture Collection. Eight bovine mastitis clinical isolates of S. aureus (SHY97-3906, -3923, -4085 -4242, -4320 and -4343, RFT-1 and RFT-5) and one isolate of E. coli SHY97-3923-2 and one isolate of Kiebsiella pneumoniae SHY99-723-1 were kindly provided by the Laboratoire Provincial de Pathologie Animale of St-Hyacinthe and of Rock-Forest (Quebec, Canada), respectively. Nine β-lactam antibiotics resistant S. aureus strains (PC-1, NCTC 9789, 2076, 22260, ST79/741, 3804, RN9, FAR8, and FAR10) were obtained from Vanderbilt University School of Medicine (Nashville, Tenn., USA). All the culture media were from Difco Laboratories (Detroit, Mich.). Bacteria from frozen stock at −80° C. were streaked onto tryptic soy agar plates suplemented with 5% of defibrinated sheep blood (Quelab, Montreal, QC, Canada) or Brain Heart infusion agar plates. Plates were then incubated for 16 to 24 h at 37° C. For most experiments, the strains were subcultured onto Mueller Hinton agar plates (MHA) or broth (MHB) for an additional 16-20 h. Aqueous solutions of the tested products were added by filtration through a sterile filter assembly (pore size 0.2 μm, Fisher, Ottawa, Ontario).
(§2) The MICs were determined by both macrodilution (1 ml/tube) and microdilution (100 μl/well) in sterile 96 well microtiter plates (International Nunc, Napierville, Ill.) techniques in three separate experiments according to the National Committee for Clinical Laboratory Standards (1992 and 1999) in three separate experiments. Serial 2-fold dilutions in MHB of LF, LFC, antibiotic or combination of LF or LFC with antibiotic were inoculated with an overnight culture at a final inoculum of 10^6 cfu/ml in MHB. Effect of LF combination with antibiotic on MICs were determined by adding 0.5 mg or 1 mg/ml of LF to each antibiotic dilution. The MIC was defined as the lowest concentration of drug (highest dilution) that caused a complete inhibition of bacterial growth after an incubation of 18 h. Effect of LF or LFC combination with antibiotic on MIC was also determined by checkerboard method using 96 well microtiter plates. Each antibiotic dilution (50 μl) was serially added to the wells in vertical rows starting from the top (lower dilution) to the bottom. Lactoferrin or LFC (50 μl) were added to 50 μl of each antibiotic dilution and serially diluted starting at the left (lower dilution) to the right. After inoculation, the final concentration of antibiotic from top to bottom were 32 to 8, 2 to 0.5, 0.5 to 0.125 μg/ml for penicillin, cefazolin and neomycin, respectively. From left to right, the concentration of LF or LFC were 25 to 0.0244 mg/ml or 256 to 0.5 μg/ml respectively in a final volume of 100 μl/well. The microplate's were incubated at 37° C. for 24 h. Bacterial growth was measured optically at 540 nm using Spectra Max 250 Microplate Spectrophotometer System of Molecular Device (Fisher Scientific, Ottawa, Canada). Tubes were incubated at 37° C. for 18 h and bacterial growth was measured by visual examination and optically at 540 nm using a spectrophotometer (Philips PU 8800; Pye Unican Ltd, Cambridge, UK). The fractional inhibitory concentration (FIC) was calculated as described by Eliopoulos and Moellering (1991).

S. aureus 3804^f = experiment: as above; conditions: strain β-lactamase +C; for MIC: Staphylococcus aureus
Description: as §1, §2

S. aureus RN 9 = experiment: as above; conditions: strain β-lactamase +C; for MIC: Staphylococcus aureus
Description: as §1, §2

S. aureus 2076 = experiment: as above; conditions: strain β-lactamase +A, read-out: MICs of penicillin G
Description: as §1, §2

S. aureus strains [2] = experiment: MIC / FIC determination, summary over strains; conditions: with 0.5 mg/ml LF; all tested strains except ATCC 25923 and SHY97-3906 (needed 1 mg/ml LF)
Description: Staphylococcus aureus strains ATCC 25923 and 6538 and Escherichia coli ATCC 25922 were obtained from the American Type Culture Collection. Eight bovine mastitis clinical isolates of S. aureus (SHY97-3906, -3923, -4085 -4242, -4320 and -4343, RFT-1 and RFT-5) and one isolate of E. coli SHY97-3923-2 and one isolate of Kiebsiella pneumoniae SHY99-723-1 were kindly provided by the Laboratoire Provincial de Pathologie Animale of St-Hyacinthe and of Rock-Forest (Quebec, Canada), respectively. Nine β-lactam antibiotics resistant S. aureus strains (PC-1, NCTC 9789, 2076, 22260, ST79/741, 3804, RN9, FAR8, and FAR10) were obtained from Vanderbilt University School of Medicine (Nashville, Tenn., USA). […]
The MICs were determined by both macrodilution (1 ml/tube) and microdilution (100 μl/well) in sterile 96 well microtiter plates (International Nunc, Napierville, Ill.) techniques in three separate experiments according to the National Committee for Clinical Laboratory Standards (1992 and 1999) in three separate experiments. […] Effect of LF combination with antibiotic on MICs were determined by adding 0.5 mg or 1 mg/ml of LF to each antibiotic dilution. […] Effect of LF or LFC combination with antibiotic on MIC was also determined by checkerboard method using 96 well microtiter plates. […] The fractional inhibitory concentration (FIC) was calculated as described by Eliopoulos and Moellering (1991). […]

[3] = test system: β-lactamase activity of S. aureus SHY97-4320; experiment: β-lactamase activity, nitrocefin assay, human LF; conditions: 8-μg/ml penicillin G alone
Method: Penicillin G was purchased from Novopharm Limited (Toronto, Ontario, Canada). […] Antibiotic stock solutions were always freshly prepared and diluted to the desired concentration in Mueller Hinton broth (MHB) medium (Difco Laboratories, Detroit, MI). β-Lactamase activity was measured using a quantitative spectrophotometric assay with the chromogenic cephalosporin nitrocefin. Bacterial cells were first exposed to penicillin and/or LF during 4 and 22-h in broth. At each time point, the number of cfu/ml were determined and cells aliquots were centrifuged.
The pellets were suspended in 10 mM HEPES buffer (pH 7.4) to an OD415 nm of 0.4 for PC-1 and 4 for strain SHY97-4320. Nitrocefin (100 μM) was added to 20 μl of cells in a final volume of 200 μl. Hydrolysis was measured at 486 nm on a Spectra Max 250 Microplate Spectrophotometer System of Molecular Device (Fisher Scientific, Ottawa, Canada). β-Lactamase activity was expressed as ΔO.D.486 nm/min and corrected for bacterial OD.

`CC1(C)S[C@@H]2[C@H](NC(=O)Cc3ccccc3)C(=O)N2[C@H]1C(=O)O` [penicillin G, Penicillin G] was tested, and the “susceptibility by standard disk diffusion and cefinase test” value (S. aureus strains [1]) was “resistance”, the MIC (S. aureus 22260; Staphylococcus aureus, 22260, +0.5 mg/ml LF) was 16 µg/mL and the MIC (S. aureus 22260; Staphylococcus aureus, 22260, +1 mg/ml LF) was 16 µg/mL. The MIC (S. aureus 22260; Staphylococcus aureus, 22260, Alone) was 32 µg/mL, the “MICs of penicillin G” value (S. aureus 3804^f; +1 mg/ml LF) was 64 µg/mL and the MIC (S. aureus 3804^f; read-out: MICs of penicillin G, Alone) was 128 µg/mL. The MIC (S. aureus 3804^f; +0.5 mg/ml LF, read-out: MICs of penicillin G) was 64 µg/mL, the “MICs of penicillin G” value (S. aureus RN 9; +1 mg/ml LF) was 64 µg/mL and the MIC (S. aureus RN 9; RN9, read-out: MICs of penicillin G, Alone) was 128 µg/mL. The MIC (S. aureus RN 9; RN9, +0.5 mg/ml LF, read-out: MICs of penicillin G) was 64 µg/mL, the MIC (S. aureus 2076; Staphylococcus aureus, 2076, +0.5 mg/ml LF) was 0.25 µg/mL and the MIC (S. aureus 2076; Staphylococcus aureus, 2076, +1 mg/ml LF) was 0.25 µg/mL. For the same molecule, the MIC (S. aureus 2076; Staphylococcus aureus, 2076, Alone) was 0.5 µg/mL, the “increase of inhibitory activity of penicillin” value (S. aureus strains [2]) was “two-fold” and the β-lactamase activity [3] was “present”.
